Laboratory results as given in US6756368B1, “Use of cobalt chelates for treating or preventing virus infection” (The Trustees of Columbia University in the City of New York, priority 1999, dated 2004).
Entries after “also recorded” stand apart in the source; their conditions may differ.

What was measured:
HSV-1 [1] = assay: Accumulation of α4 and α27 mRNAs (RT-PCR); type: cell-based, HSV-1 Glasgow strain 17
Method: Vero cell monolayers were either mock infected or infected. The accumulation of α4 and α27 mRNAs from infected cells was determined as previously described [Lium and Silverstein 1997] by coupled reverse transcription (RT) and polymerase chain reaction (PCR) using the commercial kit, EZ rTth RNA PCR kit (Perkin-Elmer) as specified by the manufacturer with modifications. The primers used during RT were 4-2 and ICP27-L-RT [Lium and Silverstein 1997]. Following RT, secondary primers were added for PCR (4-1 and ICP27-U-RT) (55). These primers result in amplification of a 100 basepair (bp) fragment and a 220 bp fragment from the α4 and α27 genes, respectively.
The failure to detect virus specified polypeptides of any kinetic class in cells infected in the presence of CTC96 led us to ask if virus transcripts accumulated under these conditions. Accordingly, virus was incubated with 50 μg/ml of drug for 10 min and then either washed out by dilution and used to infect cells or used directly to infect cells. At 2 and 4 hr post infection cells were harvested and total infected cell RNA was prepared for analysis by RT-PCR for the presence of transcripts from the ∝4 and ∝27 genes. […] When these studies are carried out to as long as 8 hr pi there is still no detectable accumulation of virus-specified transcripts (data not shown). […] (FIG. 15).

HSV-1 [2] = assay: Fluorescence dequenching fusion assay with R18 labeled HSV-1; type: cell-based, HSV-1 Glasgow strain 17; conditions: 50 μg/ml
HSV-1 [3] = type: cell-based, HSV-1 Glasgow strain 17; conditions: CTC-96 added at 16 hpi, virus harvested 4 hours later
[4] = tested on: varicella-zoster virus (VZV); assay: VZV infection of Helf cells, immunohistochemistry; type: cell-based, VZV strain Ellen
Method: Helf cell monolayers seeded on two chambered slides were infected with 20 μl cell-associated VZV in 1% FBS DMEM in the presence and absence of 50 μg/ml CTC-96. At 28 h postinfection, the slides were washed twice with PBS, fixed in 3.7% formaldehyde in PBS for 30 min at room temperature, and washed again. The infected cells were washed twice with Tris-buffered saline (TBS) and incubated at −20° C. in −20° C. acetone for 10 min. Slides were washed twice with TBS, blocked with 1% goat serum (Sigma, St. Louis, Mo.) in TBS for 20 min at room temperature, and incubated in 200 μl 1:200 rabbit polyclonal anti-ORF 29 in 1% goat serum TBS for 30 min at room temperature. The slides were washed three times with TBS for 5 min each and then incubated with 200 μl 1:200 goat anti-rabbit IgG conjugated horseradish? peroxidase (Kirkegaard and Perry Laboratories Inc.) in 1% goat serum TBS for 30 min at room temperature. Slides were washed three times with TBS for 5 min each. The peroxidase was developed for 5 min using the commercial kit, Alkaline Phosphatase Substrate Kit III (Vector Laboratories Inc., Burlingame, Calif.) according to the manufacturer's directions and then washed several times with water. The slides were viewed with a Leitz Dialux microscope. Endocytosis assay. Vero cells seeded on cover slips were incubated at 37° C. in 5% BCS DMEM with and without 50 μg/ml CTC-96 for various times. […]

[5] = tested on: adenovirus serotype 2 (Ad2); assay: Fluorescence focus assay, Ad2 on A549 cells; type: cell-based; conditions: for Percent inhibition, Adenovirus: Ad2, A549
Method: A549 or 293 cell monolayers were infected with Ad2 or Ad-CMV-null at 0.1 fluorescence focus units (FFUs) per cell for 2 h in 2% BCS DMEM in the presence and absence of 50 μg/ml CTC-96. At 29 h postinfection the plates were washed twice with PBS and fixed with methanol for 4 min at room temperature. Cells were washed twice with PBS, incubated in 500 μl 1:100 rabbit polyclonal anti-adenovirus serum in PBS for 30 min at room temperature and washed with PBS. Plates were then incubated in 500 μl 1:40 goat anti-rabbit IgG conjugated FITC in PBS. Foci were visualized using a Leitz Dialux microscope with an optical system for the selective visualization of FITC and then counted.
A549s were plated on 35 mm dishes at 8×10^5 cell/plate in 10% FBS DMEM
added 19.25 μl stock to 50 μl total of each respective media (+/− 0, 5, 25 or 50 μg/ml CTC96)
After 2 h-added 3 ml of each respective media
Incubated @37° C. for 28 h (total)

HSV-1 and 2 = conditions: cited from earlier work
[6] = 50 μg/ml of CTC-96; cited from earlier work
HSV-1 [7] = assay: Adsorption assay, 3H labeled HSV-1 binding to Vero cells; conditions: 50 μg/ml, 4° C., MOI 100

CC(/C=C(/C)[O-])=NCCN=C(C)/C=C(/C)[O-].Cc1ncc[nH]1.Cc1ncc[nH]1.[Br-].[Co+3] [CTC-96]
time in which the action of the drug occurs (HSV-1 [1]): less than 10 min
accumulation of α4 and α27 mRNAs (HSV-1 [1]; 50 μg/ml present from onset of infection, 2 and 4 hr pi): neither the accumulation of α4 nor α27 mRNAs were detectable; also recorded: inhibits α4 and α27 gene expression
accumulation of α4 and α27 mRNAs (HSV-1 [1]; 50 μg/ml present from onset of infection, 2 and 4 hr pi, listed as CTC96): no accumulation
accumulation of α4 and α27 mRNAs (HSV-1 [1]; virus exposed to drug 10 min, drug then diluted/removed): began to accumulate
accumulation of α4 and α27 mRNAs (HSV-1 [1]; virus exposed to drug 10 min, drug then diluted/removed, listed as CTC96): A small amount of immediate early gene RNA is detected
fusion of the virus envelope with the plasma membrane (HSV-1 [2]): prevented HSV-1 fusion to the cell; also recorded: inhibits the fusion of the virion envelope with the plasma membrane; also recorded: inhibited
fluorescence dequenching of R18 (HSV-1 [2]; up to 40 min post-warming): significantly dampened
virus titers (HSV-1 [3]): negligible drop in virus titers
cells positive for VZV ([4]; Helf cells, in the presence of CTC-96): Very few cells were positive
% Inhibition ([4]; VZV (Ellen), Helt, 50 μg/ml of CTC-96, immunohistochemistry): 100%
average foci per field ([5]; 25 μg/ml, Plate 1): 26 = 3.9
total foci counted ([5]; 25 μg/ml, Plate 1): 102
average foci per field ([5]; 25 μg/ml, Plate 2): ? = 3.1
total foci counted ([5]; 25 μg/ml, Plate 2): 109
average foci per field ([5]; 50 μg/ml, Plate 1): 47 = 1.6
total foci counted ([5]; 50 μg/ml, Plate 1): 73
average foci per field ([5]; 50 μg/ml, Plate 2): 46 = 1.5
total foci counted ([5]; 50 μg/ml, Plate 2): 70
% Inhibition ([5]; Adenovirus (2), A549, 50 μg/ml of CTC-96, fluorescence focus assay): 36%
Percent inhibition, Adenovirus ([5]; CTC-96 25 μg/ml): 18%
Percent inhibition, Adenovirus ([5]; CTC-96 50 μg/ml): 64%
HSV-1 production in tissue culture (HSV-1 and 2): effective in inhibiting HSV-1 production
rank among the CTC compounds against HSV (HSV-1 and 2; comparison of several CTC complexes): least cytotoxic and most effective of the CTC compounds; also recorded: most potent inhibitor of HSV-1 in tissue culture and in the rabbit eye model
toxicity in animal models [6]: does not appear to be toxic
adsorption (binding) of HSV-1 to Vero cell monolayers (HSV-1 [7]): no effect
